Measured values published in patent US12024506B2, “Compounds” (Oxford University Innovation Limited, priority 2018, dated 2024).

Experiments:
[1] = biological target: T1, GST-human KRas166 (G12V) GPPNHP (Homo sapiens, UniProt P01116, G12V); assay: KRas small-molecule screening by SPR (Biacore T200); format: binding; details: compound 100 uM, 5% DMSO buffer; immobilised GST-KRas166 (G12V) GPPNHP
T1 construct: made in house; host or cells: E. coli C41(DE3)
Summary of the method: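 Biacore T200 screen: compounds at 100 uM final in 5% DMSO buffer (100 mM NaCl, 5 mM MgCl2) over GPPNHP-bound GST-KRas166 G12V captured by anti-GST antibody (10,000–15,000 RU) versus GST-only channel. Expected 1:1 Rmax 63 RU; DMSO solvent correction applied.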

[2] = test system: H358 cells (ATCC CRL-5807); assay: Cell viability assay 1 (CellTiter-Glo), H358 cells; format: cell-based; details: Homo sapiens, NCI-H358, 48 h, first value of the cell, read-out: Cell Viability H358 (concentration that decreases cell viability by 50%)
Method: (§1) Cells (A549 ATCC CCL-185) are cultured in Dulbecco's Modified Eagle's Medium plus 10% foetal calf serum and 2 mM L-glutamine at 37° C., 5% CO2. Cells are plated onto white clear bottom 96-well plates (5000 cells/well in 200 μl media) and left to adhere overnight at 37° C., 5% CO2. Next day, test compound (1 μl at 200× concentration in 100% DMSO) is added to give final test compound concentration 1× in 0.5% DMSO. After 48 h of incubation at 37° C., 5% CO2, 20 μl CellTiter-Glo reagent (Promega G7572) is added into each well. Plates are incubated at room temperature with shaking for 30 min and then luminescence is read using a PheraStar plate reader. The concentration of compounds that decrease cell viability by 50% is calculated from dose response curves generated using Dotmatics data analysis software.
In the H358 cell assay, cells (ATCC CRL-5807) are cultured in RPMI-1640 medium plus 10% foetal calf serum and 2 mM L-glutamine at 37° C., 5% CO2.

[3] = test system: DLD1 cells (ATCC CCL-221); assay: Cell viability assay 1 (CellTiter-Glo), DLD1 cells; format: cell-based; details: Homo sapiens, DLD-1 cells, 48 h, second value of the cell, read-out: Cell Viability DLD-1 (concentration that decreases cell viability by 50%)
Method: as §1
In the DLD1 cell assay, cells (ATCC CCL-221) are cultured in RPMI-1640 medium plus 10% foetal calf serum and 2 mM L-glutamine at 37° C., 5% CO2.

SMILES | SPR Response Units [1] [Response Units] | IC50 [2] [µM] | IC50 [3] [µM]
CN1CCN(Cc2ccc(C(=O)NCC3COc4cccc(-c5ccc(OCc6ccccc6)cn5)c4O3)o2)CC1 (stereo not drawn) [Example 109, 5-(4-Methyl-piperazin-1-ylmethyl)-furan-2-carboxylic acid [8-(5-benzyloxy-pyridin-2-yl)-2,3-dihydro-benzo[1,4]dioxin-2-ylmethyl]-amide] | 114 | > 100 | 9
COc1nc(-c2cccc3c2OCCO3)ccc1Nc1ccc(Cn2ccnc2)cc1 [Example 58, [6-(2,3-Dihydro-benzo[1,4]dioxin-5-yl)-2-methoxy-pyridin-3-yl]-(4-imidazol-1-ylmethyl-phenyl)-amine] | 269 | 19 | 16.2
COc1cc(NC(=O)C2CNCCO2)cc(-c2cccc3c2O[C@H](CNC(=O)c2ccc(CN4CCN(C)CC4)o2)CO3)n1 (stereo partly drawn) [Example 130, Morpholine-2-carboxylic acid{2-methoxy-6-[(R)-3-({[5-(4-methyl-piperazin-1-ylmethyl)-furan-2-carbonyl]-amino}-methyl)-2,3-dihydro-benzo[1,4]dioxin-5-yl]-pyridin-4-yl}-amide] | 61 | 13.6 | 11.9
COc1nc(-c2cccc3c2OCCO3)ccc1Nc1cccc([C@@H]2CCCN2)c1 [Example 75, [6-(2,3-Dihydro-benzo[1,4]dioxin-5-yl)-2-methoxy-pyridin-3-yl]-((S)-3-pyrrolidin-2-yl-phenyl)-amine] | 112 | 2.6 | 4
CN(C)Cc1cccc(CN2CCN(c3cccc4c3OCCO4)CC2)c1 [Example 157, {3-[4-(2,3-Dihydro-benzo[1,4]dioxin-5-yl)-piperazin-1-ylmethyl]-benzyl}-dimethyl-amine] | 7 | > 150 | > 150
COc1nc(-c2cccc3c2OCCO3)ccc1Nc1cccc(CN(C)C)c1 [Example 55, [6-(2,3-dihydro-benzo[1,4]dioxin-5-yl)-2-methoxy-pyridin-3-yl]-(3-dimethylaminomethyl-phenyl)-amine] | 130 | 8 | 9.2
COc1nc(-c2cccc3c2O[C@H](CNC(=O)C2CCOCC2)CO3)ccc1Nc1cccc(CN(C)C)c1 [Example 112, Tetrahydro-pyran-4-carboxylic acid {(R)-8-[5-(3-dimethylamino-methyl-phenylamino)-6-methoxy-pyridin-2-yl]-2,3-dihydro-benzo[1,4]dioxin-2-ylmethyl}-amide] | 90 | 18.8 | 16.3
COc1cccc(-c2cccc3c2O[C@H](CNC(=O)c2ccc(OCCN(C)C)cc2)CO3)n1 [Example 40, 4-(2-Dimethylamino-ethoxy)-N-[(R)-8-(6-methoxy-pyridin-2-yl)-2,3-dihydro-benzo[1,4]dioxin-2-ylmethyl]-benzamide] | 58 | 52 | 12
COc1cccc(-c2cccc3c2OC(CNC(=O)c2ccc(OCCN(C)C)cc2F)CO3)n1 (stereo not drawn) [Example 38, 4-(2-Dimethylamino-ethoxy)-2-fluoro-N-[8-(6-methoxy-pyridin-2-yl)-2,3-dihydro-benzo[1,4]dioxin-2-ylmethyl]-benzamide] | 335 | 58 | 3.6

Other lines, results leading:

SPR Response Units [1] [Response Units] | IC50 [2] [µM] | IC50 [3] [µM] | SMILES
310 | 13.4 | 14.7 | COc1nc(-c2cccc3c2OCCO3)ccc1Nc1cccc(CNCc2cc[nH]n2)c1 [Example 209, [6-(2,3-Dihydro-benzo[1,4]dioxin-5-yl)-2-methoxy-pyridin-3-yl]-(3-{[(1H-pyrazol-3-ylmethyl)-amino]-methyl}-phenyl)-amine]
197 | 8.6 | 0.65 | COc1nc(-c2cccc3c2OCCO3)ccc1Nc1cccc(C(=O)NCC2CCNCC2)c1 [Example 180, 3-[6-(2,3-Dihydro-benzo[1,4]dioxin-5-yl)-2-methoxy-pyridin-3-ylamino]-N-piperidin-4-ylmethyl-benzamide]
321 | > 150 | 11.4 | COc1nc(-c2cccc3c2OCCO3)ccc1Nc1cccc(CNCC2CCC(=O)N2)c1 (stereo not drawn) [Example 192, 5-({3-[6-(2,3-Dihydro-benzo[1,4]dioxin-5-yl)-2-methoxy-pyridin-3-ylamino]-benzylamino}-methyl)-pyrrolidin-2-one]
176 | 13 | 3.8 | COc1nc(-c2cccc3c2OCCO3)ccc1Nc1cccc(CNCC2CCC(=O)NC2)c1 (stereo not drawn) [Example 195, 5-({3-[6-(2,3-Dihydro-benzo[1,4]dioxin-5-yl)-2-methoxy-pyridin-3-ylamino]-benzylamino}-methyl)-piperidin-2-one]
174 | 23.3 | 4.7 | COc1nc(-c2cccc3c2OCCO3)ccc1Nc1ccc(CNCC2CCC(=O)NC2)cc1 (stereo not drawn) [Example 172, 5-({4-[6-(2,3-Dihydro-benzo[1,4]dioxin-5-yl)-2-methoxy-pyridin-3-ylamino]-benzylamino}-methyl)-piperidin-2-one]
151 | 11 | 35.9 | COc1nc(-c2cccc3c2OCCO3)ccc1Nc1cccc(CC(=O)NC2CCC(=O)NC2)c1 (stereo not drawn) [Example 206, 2-{3-[6-(2,3-Dihydro-benzo[1,4]dioxin-5-yl)-2-methoxy-pyridin-3-ylamino]-phenyl}-N-(6-oxo-piperidin-3-yl)-acetamide]
387 | 17.5 | 10.5 | COc1nc(-c2cccc3c2OCCO3)ccc1Nc1cccc(CC(=O)NCC2CCN(C)CC2)c1 [Example 202, 2-{3-[6-(2,3-Dihydro-benzo[1,4]dioxin-5-yl)-2-methoxy-pyridin-3-ylamino]-phenyl}-N-(1-methyl-piperidin-4-ylmethyl)-acetamide]
198 | 27 | 11.3 | COc1nc(-c2cccc3c2OCCO3)ccc1Nc1cccc(C(=O)NCC2CCNC(=O)C2)c1 (stereo not drawn) [Example 182, 3-[6-(2,3-Dihydro-benzo[1,4]dioxin-5-yl)-2-methoxy-pyridin-3-ylamino]-N-(2-oxo-piperidin-4-ylmethyl)-benzamide]
1189 | 5.8 | 22 | COc1nc(-c2cccc3c2OCCO3)ccc1Nc1cccc(CN2CCNCC2)c1 [Example 207, [6-(2,3-Dihydro-benzo[1,4]dioxin-5-yl)-2-methoxy-pyridin-3-yl]-(3-piperazin-1-ylmethyl-phenyl)-amine]
150 | 1.8 | 0.27 | COc1nc(-c2cccc3c2OCCO3)ccc1Nc1ccc(CNCC2CCNCC2)cc1 [Example 178, [6-(2,3-Dihydro-benzo[1,4]dioxin-5-yl)-2-methoxy-pyridin-3-yl]-(4-{[(piperidin-4-ylmethyl)-amino]-methyl}-phenyl)-amine]
